Assay results: PMC9727977, “Pharmacokinetics and pharmacodynamics of bioactive compounds in Penyanqing preparation in THP-1 inflammatory cells induced by Lipopolysaccharide” (BMC Complementary Medicine and Therapies, 2022)
Read-outs that look alike come from different tables or passages of the source.

What was measured:
[1] = Pharmacokinetics of six compounds in rat plasma after oral administration of PYQ (HPLC-MS/MS); type: in vivo, Sprague–Dawley rats; conditions: for CL/F: n = 6, read-out: CLz/F (converted); for Vd/F: n = 6, read-out: Vz/F; for AUC(0-inf) / AUC(0-t) / AUC(0-∞): non-compartmental; for MRT: read-out: mean residence time (MRT)
Experimental: Animal experiments referred to our previous manuscript. Female Sprague–Dawley rats (n = 10), weighing 200 ± 20 g, were purchased from the Experimental Animal Center of Southern Medical University (Guangzhou, China). These rats were kept adaptively for one week before the experiment, with a temperature of 23 ± 2 ℃, humidity of 40 ± 5%, 12 h light/dark cycle, and random-fed with water and food available. The rats were fasted overnight before administration.
In our previous study, three different doses (5, 10, and 20 mL/kg/day) of PYQ were used to explore the pharmacodynamic effects of it. According to the clinical dose, the PYQ was orally administered to rats at a dose of 8 mL/kg in this experiment. The plasma of 500 µL was obtained via the retinal venous plexus at 0.083, 0.25, 0.5, 0.75, 1, 2, 4, 8, 12 and 24 h after gavage administration. Then all samples were centrifuged at 4 ℃ for 5 min at 8,000 rpm, and were stored at -80 ℃ in refrigerator until further analysis.
For the pharmacokinetic study of PRO, PE, AST, FE, and CH, 100 µL plasma sample was mixed with 10 µL internal standard (IS, 2 µg/mL naringin), and 700 µL methanol was added for protein sedimentation. The mixture was vortexed for 6 min and centrifuged at 13, 000 rpm for 15 min at 4 ℃. Next, the supernatant was dried in a vacuum drying oven and vortexed with 100 µL of 50% methanol for 6 min, and then the mixture was centrifuged at 13, 000 rpm for 30 min at 4 ℃, and the supernatant was filtered by 0.22 µM filter membrane for HPLC–MS/MS analysis.
For the pharmacokinetic study of SAB, 100 µL plasma was mixed with 10 µL IS (2 µg/mL naringin) and then acidified by mixing with 25 µL of 20% hydrochloric acid. After addition of 1 mL of ethyl acetate, the mixture was vortexed for 6 min and centrifuged at 13,000 rpm for 15 min. The organic layer was transferred to an Eppendorf tube and dried in a vacuum drying oven. The residue was dissolved in 100 µL methanol. After centrifugation at 13,000 rpm for 30 min, the supernatant was filtered by 0.22 µM filter membrane for HPLC–MS/MS analysis.
In this study, the negative ESI multiple reaction monitoring (MRM) mode of AB Sciex API-4000 LC–MS/MS Systems was used to measure SAB, PRO, PE, AST, FE, and CH in rat plasma, respectively. The following setups of the analyzers were used: the temperatures were all 500 ℃; GS1, 55 psi; GS2, 55 psi; curtain gas, 10 psi.
For the chromatographic analysis of PRO, PE, AST, FE, and CH, the chromatographic column used was Agilent Poroshell 120 EC-C18 (100 mm × 3.0 mm, 2.7 µm), and the column temperature was maintained at 25 ℃. The mobile phase was consisted of A (methanol) and B (0.2% aqueous formic acid), and the flow rate was 0.4 mL/min. The gradient elution was carried out as follows: 10% A at 0 ~ 1 min, 10% A-95% A at 1 ~ 2 min, 95% A at 2 ~ 5 min, 95% A-10% A at 5 ~ 5.1 min, 10% A at 5.1 ~ 6 min. 5 µL sample was injected into the system for analysis.
For the chromatographic analysis of SAB, the chromatographic column used was ZORBAX SB-C18 (100 mm × 2.1 mm, 3.5 µm), and the column temperature was maintained at 25 ℃. The mobile phase was consisted of A (methanol) and B (0.2% aqueous formic acid), and the flow rate was 0.4 mL/min. The gradient elution was carried out as follows: 30% A at 0 ~ 0.5 min, 30% A-90% A at 0.5 ~ 1 min, 90% A at 1 ~ 4.5 min, 90% A-30% A at 4.5 ~ 4.6 min, 30% A at 4.6 ~ 6 min. 5 µL sample was injected into the system for analysis.
The pharmacokinetic parameters were calculated by non-compartmental model of the DAS 2.0 software package. The data were presented as mean ± standard deviation (SD). Statistical calculations were performed using SPSS statistical software, and a value of p < 0.05 was denoted statistically significant difference.

[2] = Stability of the analytes in rat plasma QC samples under different storage conditions; type: in vitro ADME
Experimental: QC samples were […], 50, 125, 400 ng/mL for FE, 20, 100, 400 ng/mL for PRO, 100, 200, 500 ng/mL for CH, 100, 200, 500 ng/mL for PE, 200, 400, 800 ng/mL for SAB respectively. All the stock solutions, working solutions and QC samples were stored at 4 ℃ until use. […] The stability of all QC samples was determined by the freshly calibration curve.

[3] = female, Sprague-Dawley, po, PYQ orally 8 mL/kg, mean ± SD, n = 6
[4] = female, Sprague-Dawley, po, PYQ orally 8 mL/kg, mean ± SD
[5] = female, Sprague-Dawley, po, PYQ orally 8 mL/kg, mean ± SD, n = 6, read-out: Cmax
[6] = female, Sprague-Dawley, po, PYQ orally 8 mL/kg, mean ± SD, n = 6, read-out: AUC(0-t)
[7] = female, Sprague-Dawley, po, after PYQ administration
[8] = high QC level, nominal ng/mL: AST 500, FE 400, PRO 400, CH 500, PE 500, SAB 800, n = 6
[9] = low QC level, nominal ng/mL: AST 100, FE 50, PRO 20, CH 100, PE 100, SAB 200, n = 6
[10] = middle QC level, nominal ng/mL: AST 200, FE 125, PRO 100, CH 200, PE 200, SAB 400, n = 6
[11] = PYQ orally 8 mL/kg, mean ± SD, n = 6
[12] = female, Sprague-Dawley, po, PYQ orally 8 mL/kg, mean ± SD, n = 6, read-out: tmax

| Molecule | half-life [1, 3] [h] | CL/F [1, 4] [mL/min/kg] | Cmax [1, 5] [ng/mL] | Vd/F [1, 4] [L/kg] | AUC(0-inf) [1, 3] [ng·h/mL] | AUC(0-t) [1, 6] [ng·h/mL] | MRT [1, 7] [h] | In 56 ℃ for 1 h measured value [2, 8] | Room temperature 24 h measured value [2, 8] | Three freeze-thaw cycles measured value [2, 8] | In 56 ℃ for 1 h measured value [2, 9] | Room temperature 24 h measured value [2, 9] | Three freeze-thaw cycles measured value [2, 9] | In 56 ℃ for 1 h measured value [2, 10] | Room temperature 24 h measured value [2, 10] | Three freeze-thaw cycles measured value [2, 10] | Tmax [1, 11] [h] | Cmax [1, 11] [ng/mL] | t1/2 [1, 11] [h] | AUC(0-∞) [1, 11] [ng·h/mL] | also measured |
| --- | --- | --- | --- | --- | --- | --- | --- | --- | --- | --- | --- | --- | --- | --- | --- | --- | --- | --- | --- | --- | --- |
| O=Cc1ccc(O)c(O)c1 [PRO, protocatechualdehyde] | 0.93 ± 0.06 | 310 | 1430 ± 220 | 24.9 ± 1.96 | 1080 ± 70 | 1050 ± 60 | ≤ 3 | 394.26 ± 8.01 | 398.27 ± 4.21 | 395.66 ± 7.14 | 19.88 ± 0.43 | 20.81 ± 0.85 | 20.62 ± 1.06 | 98.21 ± 2.33 | 100.34 ± 1.48 | 97.77 ± 2.49 | – | – | – | – | Tmax ([1]; female, Sprague-Dawley, in vivo, po, PYQ orally 8 mL/kg, mean ± SD, n = 6, read-out: tmax): 0.25 h |
| COc1cc(/C=C/C(=O)O)ccc1O [FE, ferulic acid] | 0.9 ± 0.02 | 230 | 1200 ± 150 | 17.9 ± 3.28 | 1480 ± 240 | 1430 ± 230 | ≤ 3 | 399.13 ± 3.26 | 403.59 ± 7.84 | 400.59 ± 6.95 | 48.33 ± 2.76 | 49.14 ± 2.35 | 49.41 ± 1.85 | 123.42 ± 1.76 | 122.72 ± 2.65 | 124.36 ± 2.46 | 0.25 ± 0 | – | – | – | – |
| salvianolic acid B [SAB] | – | – | – | – | – | – | – | 791.11 ± 5.98 | 792.27 ± 3.94 | 790.71 ± 3.52 | 196.22 ± 3.40 | 208.88 ± 8.46 | 194.10 ± 8.56 | 395.20 ± 10.70 | 391.06 ± 6.16 | 388.99 ± 6.75 | 0.29 ± 0.10 | 1590 ± 330 | 7.60 ± 3.34 | 3700 ± 460 | CLz/F [1, 11]: 91.3 ± 11.3 mL/min/kg; Vz/F [1, 11]: 59.83 ± 25.48 L/kg; AUC(0-t) [1, 11]: 3400 ± 450 ng·h/mL; mean residence time (MRT) ([1]; after PYQ administration): 5.67 ± 0.66 h |
| C[C@@]12C[C@@]3(O)O[C@@H](O1)[C@]1(COC(=O)c4ccccc4)[C@H]3C[C@@]12O[C@@H]1O[C@H](CO)[C@@H](O)[C@H](O)[C@H]1O [PE, paeoniflorin] | – | 153 | 2040 ± 590 | 31.3 ± 4.08 | 2220 ± 310 | 2210 ± 310 | ≤ 3 | 495.87 ± 6.50 | 499.23 ± 2.58 | 492.85 ± 7.60 | 95.32 ± 1.06 | 99.44 ± 2.43 | 99.68 ± 2.83 | 196.25 ± 4.08 | 199.64 ± 2.59 | 197.55 ± 3.60 | – | – | 2.37 ± 0.20 | – | Tmax [1, 12]: 0.25 h |
| O=C(/C=C/c1ccc(O)c(O)c1)O[C@@H]1C[C@](O)(C(=O)O)C[C@@H](O)[C@H]1O [CH, chlorogenic acid] | 1.86 ± 0.21 | 356 | – | 57.2 ± 7.48 | – | 920 ± 60 | ≤ 3 | 489.60 ± 8.91 | 499.00 ± 6.02 | 485.90 ± 9.73 | 97.22 ± 3.31 | 99.91 ± 2.94 | 98.55 ± 2.93 | 195.56 ± 7.88 | 200.03 ± 9.56 | 191.77 ± 8.91 | – | 1370 ± 60 | – | 940 ± 90 | – |
| C[C@@H]1O[C@@H](O[C@H]2C(=O)c3c(O)cc(O)cc3O[C@@H]2c2ccc(O)c(O)c2)[C@H](O)[C@H](O)[C@H]1O [AST, astilbin] | 3.42 ± 0.34 | 159 | 2270 ± 350 | 45.4 ± 6.31 | 2090 ± 200 | 2080 ± 200 | ≤ 3 | 495.21 ± 8.43 | 498.07 ± 3.95 | 497.15 ± 6.61 | 98.46 ± 2.77 | 99.68 ± 2.31 | 97.89 ± 4.06 | 194.85 ± 6.53 | 199.01 ± 3.99 | 193.37 ± 7.61 | – | – | – | – | Tmax [1, 12]: 0.25 h |
